Experimental data as given in US20150258059A1, “ANTIMICROBIAL AND RADIOPROTECTIVE COMPOUNDS” (BioDiem, Ltd, priority 2001, published 2015).
In brackets after ≈: the same amount, converted by molar mass. Like-named read-outs stand apart in the source and are kept apart here.

What was measured:
[1] = tested on: Salmonella typhimurium M-727; test: Sensitivity of strains: suppression of growth; format: cell-based; conditions: Compound (1) 1.0%; antibiotics disc method
physchem = conditions: aqueous with cosolvent or surfactant or cyclodextrin
Bacillus subtilis RMIT = test: NCCLS broth microdilution MIC/MBC; format: cell-based; conditions: for MIC: Bacillus subtilis
Bacillus subtilis = test: Rate of kill, viable counts; conditions: in 2 h
[2] = tested on: Pseudomonas aeruginosa ATCC 27853; test: NCCLS broth microdilution MIC/MBC; format: cell-based; conditions: for MIC: Pseudomonas aeruginosa, ATCC27853, read-out: MIC
[3] = tested on: Klebsiella pneumoniae M-A21; test: Sensitivity of strains: suppression of growth; format: cell-based; conditions: Compound (1) 1.0%; antibiotics disc method
Paecilomyces variotii = test: M38-P microdilution MIC/MFC; format: cell-based; conditions: Table 16, 48 h, 35° C.
[4] = tested on: S. aureus-clinical isolate 1; test: microbe, parasite or virus in culture; format: cell-based
Description: (§1) NCCLS-USA Standard Method—Broth microdilution (or macrodilution) (Mueller-Hinton).
(§2) Inoculum 1-4×10^4 cfu (or −4×10^5 cfu). Ciprofloxacin test control. Chlorhexidine values added for disinfectant and antiseptic activity comparison.

[5] = tested on: S. aureus-clinical isolate 2; test: microbe, parasite or virus in culture; format: cell-based
Description: as §1, §2

Aspergillus fumigatus = test: M38-P microdilution MIC/MFC; format: cell-based; conditions: Table 16, 48 h, 35° C.
Candida albicans = test: M38-P microdilution MIC/MFC; format: cell-based; conditions: Table 16, 24 h, 35° C.
[6] = tested on: Escherichia coli ATCC 25922; test: NCCLS broth microdilution MIC/MBC; format: cell-based; conditions: for MIC: Escherichia coli, ATCC25922, read-out: MIC
Fusarium graminearum = test: microbe, parasite or virus in culture; format: cell-based; conditions: 48 h
B. subtilis = test: Antibacterial activity in the presence of blood, macrodilution; format: cell-based; conditions: for MIC: Bacillus subtilis
[7] = tested on: Campylobacter jejuni RMIT FF3; test: NCCLS broth microdilution MIC/MBC; format: cell-based; conditions: Table 9, 48 h
Klebsiella oxytoca [8] = test: Rate of kill, viable counts
Klebsiella pneumoniae = test: Agar plug diffusion, zone of retardation; conditions: plug impregnated at 0.5%
[9] = tested on: Acinetobacter calcoaceticus; test: Rate of kill, viable counts; conditions: in 6 h
S. aureus = test: MIC in increasing concentrations of plasma; format: cell-based; conditions: Staphylococcus aureus
Description: (§3) […]. Serum binding is significant in drug distribution and bioavailability.
(§4) […]. Bactericidal activity is much more affected than inhibitory activity.

Streptococcus pyogenes = test: MIC in increasing concentrations of plasma; format: cell-based
Description: as §3, §4

Staphylococcus aureus = test: Rate of kill, viable counts
[10] = tested on: γ-hemolytic streptococcus B-672; test: Sensitivity of strains: suppression of growth; format: cell-based; conditions: Compound (1) 1.0%; antibiotics disc method
Klebsiella oxytoca [11] = test: NCCLS broth microdilution MIC/MBC; format: cell-based; conditions: for MIC: Klebsiella oxytoca
Description: as §1, §2

[12] = tested on: Acinetobacter calcoaceticus RMIT; test: NCCLS broth microdilution MIC/MBC; format: cell-based; conditions: for MIC: Acinetobacter calcoaceticus
Description: as §1, §2

Clostridium difficile = test: NCCLS broth microdilution MIC/MBC; format: cell-based; conditions: Clostridioides difficile; Table 9
Description: as §1, §2

Campylobacter spp. = test: NCCLS broth microdilution MIC/MBC; format: cell-based; conditions: Table 9, 48 h
Description: as §1, §2

[13] = tested on: Staphylococcus aureus B-685; test: Sensitivity of strains: suppression of growth; format: cell-based; conditions: Compound (1) 1.0%; antibiotics disc method
Acinetobacter B-681 = test: Sensitivity of strains: suppression of growth; format: cell-based; conditions: Compound (1) 1.0%; antibiotics disc method
Cryptococcus neoformans = test: M38-P microdilution MIC/MFC; format: cell-based; conditions: Cryptococcus neoformans, Table 16, 24 h, 35° C., read-out: MIC

C/C(=C\c1ccc2c(c1)OCO2)[N+](=O)[O-] [Compound (1)]
Suppression of Growth (+/−) [1]: +
solubility (physchem): 1000 µg/mL (≈ 4830 µM)
MIC (Bacillus subtilis RMIT; Table 9, 35° C., 24 hours): 16 µg/mL (≈ 77.2 µM)
MIC (Bacillus subtilis RMIT; Table 17, 2 or 3 replicates): 16 µg/mL (≈ 77.2 µM)
MMC (Bacillus subtilis RMIT; Table 9, 35° C., 24 hours): 16 µg/mL
MMC (Bacillus subtilis RMIT; Table 17, 2 or 3 replicates): 16 µg/mL
Log reduction in viable count (Bacillus subtilis; 256 μg/mL): 3.8 in 2 h
Log reduction in viable count (Bacillus subtilis; 512 μg/mL): 4 in 2 h
MIC ([2]; Table 9, 35° C., 24 hours): > 512 µg/mL
MIC ([2]; Table 17, 2 or 3 replicates): > 512 µg/mL
MMC ([2]; Table 9, 35° C., 24 hours): >512 µg/mL
MMC ([2]; Table 17, 2 or 3 replicates): >512 µg/mL
Suppression of Growth (+/−) [3]: +
MIC (Paecilomyces variotii; Paecilomyces variotii, read-out: MIC): 1 µg/mL (≈ 4.83 µM)
MMC (Paecilomyces variotii): 2 µg/mL
MIC ([4]; Staphylococcus aureus, 24 h): 16 µg/mL (≈ 77.2 µM)
MMC ([4]; Table 9, 35° C., 24 hours): 16 µg/mL
MMC ([4]; Table 17, 2 or 3 replicates): 16 µg/mL
MIC ([5]; Staphylococcus aureus, 24 h): 16 µg/mL (≈ 77.2 µM)
MMC ([5]; Table 9, 35° C., 24 hours): 16 µg/mL
MMC ([5]; Table 17, 2 or 3 replicates): 16 µg/mL
MIC (Aspergillus fumigatus; Aspergillus fumigatus): 8 µg/mL (≈ 38.6 µM)
MMC (Aspergillus fumigatus): 32 µg/mL
MIC (Candida albicans; Candida albicans, read-out: MIC): 8 µg/mL (≈ 38.6 µM)
MMC (Candida albicans): 8 µg/mL
MIC ([6]; Table 9, 35° C., 24 hours): > 512 µg/mL
MIC ([6]; Table 17, 2 or 3 replicates): > 512 µg/mL
MMC ([6]; Table 9, 35° C., 24 hours): >512 µg/mL
MMC ([6]; Table 17, 2 or 3 replicates): >512 µg/mL
MIC (Fusarium graminearum; Fusarium graminearum): 4 µg/mL (≈ 19.3 µM)
MMC (Fusarium graminearum; Table 16, M38-P, 35° C.): 8 µg/mL
MMC (B. subtilis; 5% blood): 16 µg/mL
MMC (B. subtilis; 10% plasma): 8 µg/mL
MIC (B. subtilis; 5% blood): 8 µg/mL
MIC (B. subtilis; 10% plasma): 8 µg/mL
MIC (B. subtilis; — (no plasma or blood)): 16 µg/mL
MIC ([7]; Campylobacter jejuni, RMITFF3): 2 µg/mL (≈ 9.65 µM)
MMC [7]: 2 µg/mL
Log reduction in viable count (Klebsiella oxytoca [8]; 256 μg/mL): 0
Log reduction in viable count (Klebsiella oxytoca [8]; 512 μg/mL): 0
Size of zone of retardation of the growth (Klebsiella pneumoniae): 5
Log reduction in viable count ([9]; 256 μg/mL): 1 in 6 h
Log reduction in viable count ([9]; 512 μg/mL): 1 in 6 h
MIC (S. aureus; 0% plasma in MHB): 4 µg/mL (≈ 19.3 µM)
MIC (S. aureus; 1% plasma in MHB): 4 µg/mL (≈ 19.3 µM)
MIC (S. aureus; 2.5% plasma in MHB): 8 µg/mL (≈ 38.6 µM)
MIC (S. aureus; 5% plasma in MHB): 8 µg/mL (≈ 38.6 µM)
MIC (S. aureus; 10% plasma in MHB): 16 µg/mL (≈ 77.2 µM)
MIC (S. aureus; 20% plasma in MHB): 32 µg/mL (≈ 154 µM)
MIC (S. aureus; 50% plasma in MHB): 128 µg/mL (≈ 618 µM)
MIC (S. aureus; 100% plasma in MHB): 128 µg/mL (≈ 618 µM)
MIC (Streptococcus pyogenes): 256 µg/mL (≈ 1240 µM)
MIC (Streptococcus pyogenes; 0% plasma in MHB, read-out: MIC): 4 µg/mL (≈ 19.3 µM)
MIC (Streptococcus pyogenes; 1% plasma in MHB, read-out: MIC): 4 µg/mL (≈ 19.3 µM)
MIC (Streptococcus pyogenes; 2.5% plasma in MHB, read-out: MIC): 8 µg/mL (≈ 38.6 µM)
MIC (Streptococcus pyogenes; 5% plasma in MHB, read-out: MIC): 8 µg/mL (≈ 38.6 µM)
MIC (Streptococcus pyogenes; 10% plasma in MHB, read-out: MIC): 16 µg/mL (≈ 77.2 µM)
MIC (Streptococcus pyogenes; 20% plasma in MHB, read-out: MIC): 32 µg/mL (≈ 154 µM)
MIC (Streptococcus pyogenes; 50% plasma in MHB, read-out: MIC): 64 µg/mL (≈ 309 µM)
Log reduction in viable count (Staphylococcus aureus; 256 μg/mL, in 6 h): 0.5 in 6 h
Log reduction in viable count (Staphylococcus aureus; 512 μg/mL, in 9 h): 4 in 9 h
Suppression of Growth (+/−) [10]: +
MIC (Klebsiella oxytoca [11]; Table 9, 35° C., 24 hours): 128 µg/mL (≈ 618 µM)
MIC (Klebsiella oxytoca [11]; Table 17, 2 or 3 replicates): 128 µg/mL (≈ 618 µM)
MMC (Klebsiella oxytoca [11]; Table 9, 35° C., 24 hours): 256 µg/mL
MMC (Klebsiella oxytoca [11]; Table 17, 2 or 3 replicates): 256 µg/mL
MIC ([12]; Table 9, 35° C., 24 hours): 128 µg/mL (≈ 618 µM)
MIC ([12]; Table 17, 2 or 3 replicates): 128 µg/mL (≈ 618 µM)
MMC ([12]; Table 9, 35° C., 24 hours): 256 µg/mL
MMC ([12]; Table 17, 2 or 3 replicates): 256 µg/mL
MIC (Clostridium difficile): 4 µg/mL (≈ 19.3 µM)
MIC (Campylobacter spp.; Campylobacter): 128 µg/mL (≈ 618 µM)
MMC (Campylobacter spp.): 128 µg/mL
Suppression of Growth (+/−) [13]: +
Suppression of Growth (+/−) (Acinetobacter B-681): +
MIC (Cryptococcus neoformans): 1 µg/mL (≈ 4.83 µM)
